Tested on: normal human fibroblasts
Test: Dermodecontracting effect: spontaneous contraction of attached dermal equivalents (collagen matrix seeded with normal human fibroblasts)
Type: cell-based
Details: dermal equivalent, contraction kinetics 0, 4, 8 and 24 hours
Description: The principle of this test entails studying the effect of the test product on a model of dermal equivalent consisting of a collagen matrix seeded with normal human fibroblasts.
These conditions are suited to mimic, in vitro, the dermal contractile phenomena that occur during facial expressions. Under these conditions, in fact, the cells spontaneously express tensile forces which induce a retraction of the collagen gel. […] The measurement of this surface area makes it possible to evaluate the relaxing effects of the substances brought into contact beforehand with the dermal equivalent.
[…] The experiment is repeated three times.
The dermal equivalents are prepared as described in Asselineau et al., Exp. Cell. Res., 1985,159, 536-539; Models in Dermatology, 1987, vol. 3 pp 1-7, in the following proportions: […]
The collagen used is collagen type I (commercial solution). It is extracted from rat tail or from calf skin by acid hydrolysis and stored in an acidic medium at +4° C.; it polymerizes naturally by heating at 37° C. and by decreasing the degree of acidity. […]
For this, a digital image is acquired for each treated or non-treated dermal equivalent by means of a camera (Camera CCD-Iris Sony DXC-107P) and the surface area is then calculated on each image by means of an image analysis system (Zeiss Axiovision 3.0). […]

Row | SMILES | reduction of the fibroblast contraction, on average over the duration of the experiment, compared with the control (tested at 1 μM) [%] | reduction of the fibroblast contraction, on average over the duration of the experiment, compared with the control (tested at 10 μM) [%]
1 | c1ccc(CCCNC2CCN(CCc3ccccc3)CC2)cc1 [Compound No. 1, 1-(2-phenylethyl)-4-[N-(3-phenylpropyl)]aminopiperidine] | 21 | 
2 | CC(NC1CCN(CCc2ccccc2)CC1)c1ccccc1 (centres unmarked) [Compound No. 5, 1-(2-phenylethyl)-4-[N-(1-phenyl-ethyl)]aminopiperidine] |  | 40
